In paper PMC9686747, “Antioxidant, Anti-α-Glucosidase, Antityrosinase, and Anti-Inflammatory Activities of Bioactive Components from Morus alba” (Antioxidants, 2022):
Read-outs that look alike come from different tables or passages of the source.

How the values were obtained:
[1] = ABTS radical scavenging activity; assay type: biochemical; settings: for EC50: isolated components, read-out: SC50 ABTS
Experimental: This assay was performed using a previously reported procedure. This experiment needs to be performed in the dark. First, the reaction reagent was prepared by mixing 28 mM ABTS solution and 9.6 mM potassium persulfate solution (v/v, 1/1) and left in the dark at 4 °C for 16 h before use. The reaction reagent was diluted with ethanol until the absorbance was 0.70 ± 0.02 at 740 nm. Next, 10 μL of the extract or compound was mixed with 190 μL of the reaction reagent and incubated at room temperature for 5 min before measuring the absorbance at 740 nm. The formula of scavenging activity was calculated as follows.
ABTS radical scavenging activity (%) = (A0 − A1)/A0 × 100, where A0 and A1 are the absorbance of the control (untreated group) and test sample, respectively.

[2] = DPPH radical scavenging activity; assay type: biochemical; settings: for EC50: isolated components, read-out: SC50 DPPH
Experimental: This assay was performed using a previously reported procedure. This experiment needs to be performed in the dark. Briefly, 100 µL of varying concentrations of extracts or compounds were mixed with 100 µL of 200 µM DPPH solution and incubated at room temperature for 30 min, and the absorbance was measured at 520 nm. DPPH radical scavenging activity was calculated using the following equation.
DPPH scavenging activity (%) = (A0 − A1)/A0 × 100, where A1 is the absorbance of the test sample, and A0 is the absorbance of the control (untreated group).

[3] = Ferric reducing antioxidant power (FRAP); assay type: biochemical
Experimental: The FRAP assay was performed using a previously described procedure. This experiment needs to be performed in the dark. First, the reaction reagent was obtained by mixing acetate buffer (pH 3.6), ferric chloride solution (20 mM), and TPTZ solution (10 mM TPTZ in 40 mM HCl) in a ratio of 10:1:1, respectively. Next, 900 μL of the reaction reagent was mixed with 100 μL of the sample or Trolox in an Eppendorf tube, and the absorbance was measured at 593 nm after 40 min in a dry bath at 37 °C. The FRAP of the extracts was determined by a linear standard calibration curve from 0 to 100 mM Trolox with an R^2 value of 0.9999.

[4] = Superoxide radical scavenging activity; assay type: biochemical; settings: isolated components; read-out: SC50 Superoxide
Experimental: This assay was performed using a previously reported procedure. This experiment needs to be performed in the dark. Initially, NBT (300 μM), NADH (468 μM), and PMS (120 μM) were prepared using Tris-HCl buffer (16 mM, pH 8.0). Next, 50 μL of NBT and PMS and 10 μL of the extract or compound were mixed; subsequently, 50 μL of NADH solution was added and incubated at room temperature for 5 min before measuring the absorbance at 560 nm. The equation for the scavenging activity is as follows.
Superoxide radical scavenging activity = (A0 − A1)/A0 × 100, where A0 and A1 are the absorbance of the control (untreated group) and test sample, respectively.

tyrosinase = biological target: T1, tyrosinase (Agaricus bisporus, UniProt C7FF04); test: Tyrosinase inhibitory activity assay; assay type: biochemical
T1 construct: purchased Sigma-Aldrich

α-glucosidase = biological target: T2, α-glucosidase (Saccharomyces cerevisiae, UniProt P53341); test: biochemical; assay type: biochemical
T2 construct: purchased Sigma-Aldrich

[5] = system: nitric oxide (NO) production in RAW 264.7 cells; test: Nitric oxide inhibitory assay (Griess) in LPS-induced RAW264.7 cells; assay type: cell-based, Murine; settings: Mus musculus, LPS (100 ng/mL)-induced RAW 264.7 cells, read-out: NO Inhibition IC50
Experimental: (§1) Murine RAW264.7 macrophages were cultured at 37 °C under 5% CO2 using a culture medium that was a mixture of DMEM, 10% FBS, and 1% penicillin [29]. When the cells reached […] full growth, the seeded cells were subjected to NO measurement and iNOS protein assay.
The NO inhibition assay was performed as described in [29], with slight modification. RAW264.7 cells were seeded in 96 wells for 24 h. The next day, they were divided into the following groups: medium, medium with LPS (100 ng/mL) added, medium with the positive control (quercetin) and LPS added, and medium with samples and LPS (100 ng/mL) added. The reaction time between the medium and the sample was 1 h before adding LPS and waiting 20 h after adding LPS. Finally, half of the supernatant was transferred into a new 96-well plate and mixed in a 1:1 ratio with Griess reagent. After 15 min in the dark, the reaction was measured at 550 nm.

RAW 264.7 cells = test: MTT assay, cell viability; assay type: cell-based, Murine
Experimental: as §1
The MTT assay was performed according to the reference method, with slight modifications. Cells from the 96-well plates prepared for the NO inhibition assay were added to MTT stock solution (5 mg/mL) and diluted 20-fold with medium. After 2 h, all liquid was removed, and DMSO was added. The absorbance was measured at 570 nm.

[6] = system: inducible nitric oxide synthase (iNOS); test: Western blot analysis of iNOS expression; assay type: cell-based, Murine; settings: LPS (100 ng/mL)-induced cells, 24 h; compared to the LPS-induced group; Figure 4
Experimental: as §1
Western blot analysis was performed according to the reference method, with slight modifications. Cells were cotreated with varying concentrations of samples and LPS (100 ng/mL) for 24 h. After washing the cells with ice-cold PBS, the proteins were collected with cell lysis buffer and stored at −20 °C for subsequent experiments. The quantified proteins were separated using a 10% SDS-polyacrylamide gel. Next, the proteins were transferred to polyvinylidene fluoride (PVDF) membranes by electrophoresis. The transferred PVDF membranes were immersed in 2% BSA blocking buffer for 2 h and washed two to three times with TBST. Proteins were visualized by specific primary antibodies and soaked overnight. The next day, PVDF membranes were subjected to the TBST wash step again to remove residual primary antibodies and soaked with secondary antibodies for 2 h. Finally, after repeating the TBST wash two to three times, immunoreactivity was detected with ECL reagents, and samples were exposed with a cold light meter and quantified with Image J.

[7] = solvent extracts, 50% free radical scavenging
[8] = isolated components, mM Trolox equivalents per gram
[9] = isolated compounds, read-out: IC50 α-Glucosidase

T2 sequence (P53341 whole entry): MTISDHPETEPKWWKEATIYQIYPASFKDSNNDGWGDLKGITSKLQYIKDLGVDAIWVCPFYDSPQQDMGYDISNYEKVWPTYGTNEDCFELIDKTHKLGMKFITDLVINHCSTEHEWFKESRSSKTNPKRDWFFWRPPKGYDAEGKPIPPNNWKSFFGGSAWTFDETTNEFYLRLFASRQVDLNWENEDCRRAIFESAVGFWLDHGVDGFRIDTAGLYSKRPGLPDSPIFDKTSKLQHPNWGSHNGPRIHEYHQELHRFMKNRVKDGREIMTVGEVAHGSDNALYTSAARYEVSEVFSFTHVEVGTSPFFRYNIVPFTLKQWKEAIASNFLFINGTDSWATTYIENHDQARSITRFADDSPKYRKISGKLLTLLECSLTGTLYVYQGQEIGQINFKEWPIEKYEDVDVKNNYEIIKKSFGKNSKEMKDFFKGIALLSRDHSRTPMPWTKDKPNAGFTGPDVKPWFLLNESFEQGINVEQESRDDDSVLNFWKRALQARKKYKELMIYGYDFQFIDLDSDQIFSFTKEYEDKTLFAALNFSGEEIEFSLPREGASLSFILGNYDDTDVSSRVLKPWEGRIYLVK
T1 sequence (C7FF04 1-392 limits assumed): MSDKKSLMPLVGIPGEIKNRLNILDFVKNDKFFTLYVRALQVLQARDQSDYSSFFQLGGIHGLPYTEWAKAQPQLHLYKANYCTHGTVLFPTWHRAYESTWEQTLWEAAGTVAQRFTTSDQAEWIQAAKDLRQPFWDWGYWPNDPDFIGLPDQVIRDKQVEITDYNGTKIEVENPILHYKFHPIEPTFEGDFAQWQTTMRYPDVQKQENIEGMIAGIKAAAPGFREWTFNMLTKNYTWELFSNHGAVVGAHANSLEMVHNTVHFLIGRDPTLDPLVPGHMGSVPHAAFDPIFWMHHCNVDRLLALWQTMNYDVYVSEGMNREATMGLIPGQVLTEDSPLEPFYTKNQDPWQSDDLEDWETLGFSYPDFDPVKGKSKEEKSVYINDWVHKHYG

Row | SMILES | EC50 [1] [µM] | EC50 [2] [µM] | TE FRAP [3, 8] [mM/g] | EC50 [4] [µM] | IC50 (α-glucosidase; [9]) [µM] | IC50 ([5]; isolated components) [µM] | IC50 (tyrosinase) [µM] | IC50 (α-glucosidase) [µM] | also measured
1 | Cc1cc(C(C)(C)C)c(O)c(C(C)(C)C)c1 [BHT, butylated hydroxytoluene, reference compound] | 116 ± 25.1 | 89.8 ± 7.03 | 4385.56 ± 78.88 |  |  |  |  |  | SC50 ABTS [1, 7]: 25.87 ± 5.83 µg/mL; SC50 DPPH [2, 7]: 19.75 ± 1.79 µg/mL; TE FRAP ([3]; solvent extracts, mM Trolox equivalents per gram of extract): 4385.56 ± 45.54 mM/g
2 | O=c1ccc2ccc(O)cc2o1 [Umbelliferone (4), umbelliferone] | > 200 | > 200 | 145.23 ± 35.46 | > 200 | 492 ± 12.8 | 36.8 ± 2.26 |  |  | IC50 (tyrosinase; isolated compounds, read-out: IC50 Tyrosinase): > 400 µM
3 | CC(C)=CCc1c(O)ccc(C(=O)[C@@H]2[C@@H](c3c(O)cc(O)c4c(=O)c(CC=C(C)C)c(-c5ccc(O)cc5O)oc34)C=C(C)C[C@H]2c2ccc(O)cc2O)c1O [Kuwanon H (6), kuwanon H] | 8.68 ± 0.93 | > 200 | 1750.96 ± 36.30 | > 200 | 4.06 ± 0.12 | 40.5 ± 4.38 | 218 ± 41 |  | α-glucosidase inhibition, times more effective than acarbose (α-glucosidase; versus positive control acarbose): approximately 100 times; α-glucosidase inhibition, times more potent than other compounds (α-glucosidase; versus the other isolated compounds): 2–20 times
4 | Oc1cc(O)cc(/C=C/c2ccc(O)cc2O)c1 [Oxyresveratrol (3), oxyresveratrol] | 9.5 ± 2.08 | 44.4 ± 12.5 | 2402.22 ± 32.91 | > 200 |  | 25.4 ± 3.47 | 1.89 ± 0.59 | 8.35 ± 0.46 | TE FRAP ([3]; isolated components, mM Trolox equivalents per gram, listed as 3): 2402.22 ± 32.91 mM/g
5 | O=c1c(O)c(-c2ccc(O)cc2O)oc2cc(O)cc(O)c12 [Morin (1), morin] | 12.7 ± 5.98 | 17.5 ± 3.43 | 2963.28 ± 63.65 | 54.5 ± 19 |  | 43.3 ± 4.61 | 199 ± 84.4 | 90.1 ± 10.2 | TE FRAP ([3]; isolated components, mM Trolox equivalents per gram, listed as 1): 2963.28 ± 63.65 mM/g
6 | O=c1c(O)c(-c2ccc(O)c(O)c2)oc2cc(O)cc(O)c12 [Quercetin, quercetin, reference compound] |  |  |  |  |  | 13.2 ± 2 |  |  | cell viability (MTT) (RAW 264.7 cells; isolated compounds, Figure 3, except for the high dose of 100 μM): slight cytotoxicity at higher doses; cell viability (MTT) (RAW 264.7 cells; solvent extracts, Figure 1): slight cytotoxicity at higher doses; IC50 ([5]; solvent extracts): 3.98 ± 0.28 µg/mL
7 | CC(C)=CCc1c(-c2ccc(O)cc2O)oc2c3c(cc(O)c2c1=O)OC(C)(C)C=C3 [Morusin (2), morusin] | 44.2 ± 8.07 | > 200 | 583.43 ± 25.79 | > 200 | 15.7 ± 2.15 | 9.87 ± 0.59 | > 400 |  | iNOS expression (Western blot) [6]: significantly reducing the expression of iNOS
8 | CC(C)=CCc1c(-c2ccc(O)cc2O)oc2c([C@H]3C=C(C)C[C@@H](c4ccc(O)cc4O)[C@@H]3C(=O)c3ccc(O)cc3O)c(O)cc(O)c2c1=O [Kuwanon G (5), kuwanon G] | 9.28 ± 1.02 | > 200 | 3549.22 ± 160.65 | 188 ± 19.1 |  | 17.8 ± 0.5 | 100 ± 9.62 | 7 ± 0.31 | TE FRAP ([3]; isolated components, mM Trolox equivalents per gram, listed as 5): 3549.22 ± 160.65 mM/g
